Experimental findings from US20240327786A1, “NON-MAMMALIAN AQUATIC ANIMAL CELLS AND EXTRACTS” (Shah Caviar Limited, priority 2021, published 2024) are described below.

For the test, the system named is sturgeon suspension cells. As to the kind of experiment: Proliferation of sturgeon suspension cells treated with epigenetic modifiers (cell counts, Neubauer chamber). As to conditions: exposed once per week.

As to `CCCC(=O)O` [butyric acid], the “proliferation compared to the standard culture” value is “increase in proliferation”. The same compound gave an expansion factor (within 4 weeks, 1 μM, 10 μM, 50 μM, 100 μM and 500 μM) of 16.

Take `CCCC(CCC)C(=O)O` [valproic acid]: the “proliferation compared to the standard culture” value is listed as “increase in proliferation”. Where the note is “within 6 weeks, 30 μM, 100 μM, 300 μM, 1 mM and 3 mM”, this compound yielded an expansion factor of 8.
